Experimental data: PubChem BioAssay AID463107 (The Scripps Research Institute Molecular Screening Center, 2010)

Biological target: Sphingosine 1-phosphate receptor 4 (Homo sapiens) (UniProt O95977)
Test: potency of S1P4 activators – cell-based, fluorescence, synthesized compounds, late-stage follow-up (AID 463107)
Conditions: S1P4 cell-based agonist assay

Sequence of Sphingosine 1-phosphate receptor 4 (Homo sapiens) (O95977 whole entry, looked up): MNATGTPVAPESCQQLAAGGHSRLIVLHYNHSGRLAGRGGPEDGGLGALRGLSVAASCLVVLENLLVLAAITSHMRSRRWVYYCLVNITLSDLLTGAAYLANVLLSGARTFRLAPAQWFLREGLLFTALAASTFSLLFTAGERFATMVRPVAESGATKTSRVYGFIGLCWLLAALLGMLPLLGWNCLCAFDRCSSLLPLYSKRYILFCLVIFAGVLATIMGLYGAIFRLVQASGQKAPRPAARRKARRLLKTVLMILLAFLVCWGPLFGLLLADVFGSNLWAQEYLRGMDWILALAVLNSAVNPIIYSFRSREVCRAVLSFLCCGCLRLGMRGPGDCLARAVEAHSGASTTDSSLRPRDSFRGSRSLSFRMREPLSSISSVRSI

SMILES | EC50
Cc1ccc(OCCOc2ccc(C)nc2[N+](=O)[O-])c(C)c1 | 7200 nM
COc1ccc(OCCOc2ccc(C)nc2[N+](=O)[O-])c(Cl)c1 | 3900 nM
Cc1ccc(OCCOc2c(Cl)cc(Cl)cc2Cl)c([N+](=O)[O-])n1 | 570 nM
Cc1ccc(OCCOc2ccc(Cl)cc2Cl)c([N+](=O)[O-])n1 | 162 nM

These reach a lower EC50. Values come first.

EC50 | SMILES
45.5 nM | FCc1ccc(OCCOc2ccc(Cl)cc2Cl)c(Cl)n1
46.3 nM | Clc1ccc(OCCOc2ccc(Br)nc2Br)c(Cl)c1
52 nM | Cc1ccc(OCCOc2ccc(Cl)cc2Cl)c(Br)n1
